The structures appear in SMILES notation.

In general, melting point refers to the temperature, or range, at which the solid turns liquid.

Turning to `O=C1CCN(Cc2ccc(C(F)(F)F)cc2C(F)(F)F)CC1C(c1ccc(F)cc1)c1ccc(F)cc1` (stereo unspecified), the melting point was 104 to 105 °C.
The same measure for `COC(=O)c1ccc(OCCNC(=O)C2Cc3ccccc3N2S(=O)(=O)c2ccc(-c3ccc(F)cc3OC)cc2)cc1F` (stereo unspecified): 73 to 80 °C; for `CN1C(=O)C2(COc3cc4c(cc32)OCCO4)c2c(C(=O)Nc3ccc(F)cc3)cccc21` (stereo unspecified): more than 250 °C.
In the case of `COCCOC(=O)CCc1cc(C(C)(C)C)c(O)c(C(C)(C)C)c1` it was 62 to 64 °C; in that of `COc1ccc(S(=O)(=O)CC(CS(=O)(=O)c2ccc(OC)cc2)C(=O)NO)cc1`, 174 °C.
In the case of `CCN(CC)CC1CCCCN1CC(=O)N1c2ccc(C)cc2C(=O)Nc2cccnc21` (stereo unspecified), the melting point fell in the range of 173 to 174 °C.
Regarding `CCOC(=O)c1cc2c3n(ccc-2n1)CC(c1ccccc1)=N3`, the melting point was 255 to 257 °C.
The same measure for `COC(=N)c1ccc(Br)cc1`: 64 to 65 °C.
In the case of `CCCCC(Cc1ccc(OCCCNC(=O)c2ccc(-c3ccccn3)cc2)cc1)C(=O)O` (stereo unspecified) it was 151 to 152 °C; in that of `ClCc1cccc(OCc2ccc3ccccc3n2)c1`, 39 to 43 °C; in that of `CCCCCCCCCCCc1nnc2n1-c1sc(CC)cc1C(c1ccc(O)cc1)OC2` (stereo unspecified), 96 to 98 °C.
The same measure for `Cc1ccc(-n2c3c(c(=O)c4cccnc42)CCO3)cc1`: 246 to 248 °C; for `N#Cc1ccc(N(Cc2ccc(O)c(Cl)c2)n2cnnc2)cc1-c1ccoc1`: 192 to 193 °C.
The compound `CC(C)(C)c1ccc(C(=O)Nc2cn3nc(-n4cnc(Cl)c4Cl)ccc3n2)cc1` registered a melting point of 281 to 282 °C.
The same measure for `O=c1[nH]c2cc(Cl)c(S(=O)CCN3CCC(Cc4ccccc4)CC3)cc2o1` (stereo unspecified): 190 to 192 °C.
The same measure for `Clc1cc(Br)c2c(c1)COCO2`: 108 to 110 °C; for `O=C(O)[C@H](Cc1ccc(C(F)(F)F)cc1)[C@@H](O)c1ccoc1` (racemic): 104 to 105 °C.
The same measure for `Cc1ccc(C)n1CCNC(=O)CN1CCCC1=O`: 109 to 111 °C.
Consider `CCc1nc(Cl)c([N+](=O)[O-])c(NC(C)C)n1`, for which the melting point was in the range of 51 to 52 °C.
In the case of `COc1ccc(-n2cc(C(=O)O)cn2)cc1` it was 235 to 237 °C; in that of `COc1ccc(-c2ccc3nnn(Cc4ccc5ncccc5c4)c3n2)cc1OC`, 149 to 152 °C.
`COc1cc2c(cc1OC)C(C(COC(=O)Nc1ccccc1)COC(=O)Nc1ccccc1)N(Cc1ccccc1)CC2` (stereo unspecified) came in with a melting point of 185 °C.
The compound `Cc1oc(-c2ccccc2)nc1COc1cccc(COc2cccc(CC(=O)O)c2)n1` came in with a melting point of 97 to 98 °C.
In the case of `CSc1c(-c2ccccc2)[nH]c2ccccc12` it was 103 °C; in that of `COc1cc(NC(C)=O)c(Cl)cc1-c1nn(-c2ccc(C(F)(F)F)cc2)c(=O)o1`, 235 to 236 °C.
The same measure for `CC(C)OC(=O)c1cc(-n2c(Cl)nc(C(F)(F)F)cc2=O)c(F)cc1Cl`: 72 to 75 °C.
In the case of `COc1ccc2nc3cc(C(=O)O)ccn3c(=O)c2c1` it was 323 to 327 °C; in that of `CCOC(OCC)[C@@H]1CCCN1C(=O)[C@@H]1CCCN1C(=O)OCc1ccccc1`, 58.5 to 61 °C; in that of `CC1(C)COC1(Cn1cncn1)c1ccc(Cl)cc1` (stereo unspecified), 90 to 102 °C.
`OC1(CN2CC2)COc2ccccc2OC1` registered a melting point of 98 to 99.5 °C.
The compound `CC1(C)CC(N2CCCCCC2=O)CC(C)(C)N1O` showed a melting point of 212 to 215 °C.
`CNC(=O)c1cc(F)ccc1CNC(=O)c1nc2n(c(=O)c1OCc1ccccc1)CCOC2`: the melting point fell in the range of 189 to 190 °C.
The same measure for `CC(=O)c1cn(S(=O)(=O)c2ccccc2)c2nccc(-c3ccccc3)c12`: 138 to 140 °C; for `CCN(CC)CCNc1ccc(C)c2sc3ccc(OC)cc3c(=O)c12`: 81 to 82 °C; for `O=C(Nc1ccc(-n2nc(C(F)(F)F)cc2C(F)(F)F)cc1)c1cccc(C(F)(F)F)c1`: 143 to 145 °C.
The same measure for `COC1(c2ccccc2)OC=C(c2ccc(C(=O)O)cc2)C1=O` (stereo unspecified): 212 to 214 °C; for `CCC1(c2cn(Cc3ccc(Cl)cc3)cn2)Cc2ccccc2C1=O` (stereo unspecified): 150 to 154 °C.
In the case of `CCc1ccc(Nc2c(C(=O)NOCCO)ccc(F)c2F)c(Cl)c1` it was 142 to 145 °C; in that of `Cc1scc2c1N(C(=O)NCCN1CCC(CCCCN3CCCCC3)CC1)c1ccccc1NC2=O`, 186 to 187 °C; in that of `Cc1nnc(SCC(=O)C23CC4CC(CC(C4)C2)C3)n1C(C)C`, 119 to 120 °C.
For `CC(C)(C)c1ccc(SC(CCl)S(=O)(=O)c2ccccc2)cc1` (stereo unspecified), the melting point lay in the range of 67 to 69 °C.
The same measure for `Nc1nc(Cl)c2ncn(OCC(O)CO)c2n1` (stereo unspecified): 155 to 158 °C; for `IC#CCOc1cccnc1`: 130 °C; for `CCC(C)C(C(=O)O)N1C(=O)C2C3C=CC(C3)C2C1=O` (stereo unspecified): 109 °C.
The compound `CCOC(=O)C1=C(C)Nc2ccnc(OC(C)C)c2C1c1cccc(C(F)(F)F)c1Cl` (stereo unspecified) came in with a melting point of 173 to 175 °C.
The same measure for `COc1cc(OC)c(-c2cc3ccccc3[nH]2)cc1C=CC(=O)c1ccc(S(N)(=O)=O)cc1`: 185 to 187 °C.
As for `CNC(c1cccc(OCOC)c1)C1CCCCC1O` (stereo unspecified), the melting point lay in the range of 87 to 89 °C.
In the case of `COc1cc2nc(N3CCN(C(=O)C=Cc4ccoc4)CC3)nc(N)c2cc1OC` it was 252 to 253 °C; in that of `CCCCNc1nc(N)nc(-c2ccc(Cl)c(Cl)c2)n1`, 176 to 179 °C; in that of `O=C(O)CN1C(=O)C(=Cc2ccc(OCc3ccc(C(F)(F)F)cc3)c(OCc3ccccc3)c2)SC1=S`, 257 to 263 °C.
The same measure for `Cc1cc(=O)n(O)c(C)c1Cc1ccccc1`: 165 °C; for `O=C(O)c1cc(S(=O)(=O)N2CCCC(OCc3ccccc3)C2)ccc1Cl` (stereo unspecified): 173 to 174 °C; for `COCOc1ccc(Cl)cc1-c1cc(-c2cccc([N+](=O)[O-])c2)c(C#N)c(NC(=O)c2ccccc2)n1`: 205 to 206 °C.
In the case of `CC(Cn1ncnn1)n1nnc2cc3c(=O)n(Cc4cccnc4)nnc3cc2c1=O` (stereo unspecified) it was 200 °C; in that of `COCCN1CCN(S(=O)(=O)c2ccc(-c3cnc4[nH]c(CCc5cc(OC)ccn5)nc4c3)cc2)CC1`, 206 to 208 °C; in that of `CCN(CC)CCNS(=O)(=O)c1ccc(Nc2cnnc3cc(Cl)ccc23)cc1`, 175 to 176 °C.
`COc1cc2c(cc1OCc1ccccc1)CC(C)(C)N(C(=O)c1cc(OC)c(OC)c(OC)c1)C2C` (stereo unspecified) came in with a melting point of 175 to 177 °C.
Compound `COC(=O)C(OC)C(=S)Nc1cc(Cl)cc(Cl)c1` (stereo unspecified) returned a melting point of 144 to 147 °C.
For `O=C(c1ccccc1)N1CC(OCc2ccccc2)C(OCc2ccccc2)C(OCc2ccccc2)C1CO` (stereo unspecified), the melting point fell in the range of 104 to 106 °C.
The same measure for `CC(C)(C)c1cc(OCCCCCc2nnn[nH]2)cc(C(C)(C)C)c1O`: 140 to 141 °C; for `Cc1nc2ccccc2n1CCc1ccccc1`: 104 to 106 °C.

The record behind these values is a melting point compilation (Tetko et al.; mined from patent text by program, amines drawn as free bases though some values may be those of a salt).
